Legend:
[1] = molecular target: AmpC-PA (Class C) β-lactamase (Pseudomonas aeruginosa, UniProt P24735); experiment: In vitro enzymatic assay (Nitrocefin); assay type: biochemical
Protocol: (§1) 2) Prepare buffer solution A (1×PBS, pH 7.4, 0.1 mg/mL BSA) for enzymatic assay;
(§2) 3) The compound mother liquor was 4-fold serial diluted for 11 times with DMSO in a 96-well tip-bottom plate, which was used as a working solution. A 96-well flat bottom plate was used as a test plate, the corresponding reaction buffer was previously added to each well, followed by addition of a corresponding volume of the working solution (100 μM-0.095 nM and 0 nM). Wherein, EDTA-Na2 was used as a control for the NDM-1 test at a concentration of 20 mM;
(§3) 4) adding the corresponding β-lactamase, and the test plate was incubated at 37° C. for 5 minutes;
(§4) 5) Adding 5 μL Nitrocefin (the final reaction volume was 100 μL), the absorbance OD490 of the reaction solution in the plate was measured by a microplate reader and the result was recorded, the absorbance was measured every minute over 30 minutes;
(§5) 6) The microplate reader could give a curve of OD490 over time. The slope of the curve (Abs2−Abs1)/(T2−T1) was calculated by taking two data points Abs1 and Abs2 within the linear range of the curve.
(§6) 7) The relative inhibition rate was calculated as follows: Slope (EC) was calculated under the condition of absence of an inhibitor, and Slop(S) was calculated under the condition of an inhibitor at a certain concentration.
(§7) The relative inhibition rate and the corresponding concentration of the inhibitor were used to calculate the IC50 value of the inhibitor on β-lactamase. In this experiment, the IC50 was calculated using the formula of GraphPad Prism 5.0, log(inhibitor) vs. normalized response-Variable slope.

[2] = molecular target: AmpC-EC (Class C) β-lactamase (UniProt P05364); experiment: In vitro enzymatic assay (Nitrocefin); assay type: biochemical; conditions: Nitrocefin 0.1 mM, 1 × PBS pH 7.4, 0.1 mg/mL BSA, read-out: IC50, inhibitory activity on β-lactamase
Protocol: as §1, §2, §3, §4, §5, §6, §7

[3] = molecular target: OXA-2 (Class D) β-lactamase (Escherichia coli, UniProt P0A1V9); experiment: In vitro enzymatic assay (Nitrocefin); assay type: biochemical
Chain of OXA-2 (Class D) β-lactamase (P0A1V9 22-275): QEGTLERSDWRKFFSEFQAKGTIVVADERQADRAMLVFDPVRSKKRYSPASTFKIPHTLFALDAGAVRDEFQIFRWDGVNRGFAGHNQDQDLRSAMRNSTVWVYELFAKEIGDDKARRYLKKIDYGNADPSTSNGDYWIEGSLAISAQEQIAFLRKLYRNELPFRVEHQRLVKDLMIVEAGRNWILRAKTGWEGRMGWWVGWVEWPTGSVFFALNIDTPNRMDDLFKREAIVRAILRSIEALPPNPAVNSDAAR
Protocol: as §1, §2, §3, §4, §5, §6, §7

[4] = molecular target: CTX-M-44 (Class C) β-lactamase (Escherichia coli, UniProt Q47066); experiment: In vitro enzymatic assay (Nitrocefin); assay type: biochemical
Chain of CTX-M-44 (Class C) β-lactamase (Q47066 30-291): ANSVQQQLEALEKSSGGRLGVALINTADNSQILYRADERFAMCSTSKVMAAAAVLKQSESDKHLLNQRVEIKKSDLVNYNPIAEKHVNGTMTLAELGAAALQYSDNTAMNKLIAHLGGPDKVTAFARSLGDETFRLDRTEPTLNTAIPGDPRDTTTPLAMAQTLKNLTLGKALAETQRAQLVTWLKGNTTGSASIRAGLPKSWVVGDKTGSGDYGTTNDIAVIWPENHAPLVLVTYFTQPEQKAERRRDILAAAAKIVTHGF
Protocol: as §1, §2, §3, §4, §5, §6, §7

[5] = molecular target: OXA-9 (Class D) β-lactamase (Klebsiella pneumoniae, UniProt P0A3M3); experiment: In vitro enzymatic assay (Nitrocefin); assay type: biochemical
Chain of OXA-9 (Class D) β-lactamase (P0A3M3 25-274): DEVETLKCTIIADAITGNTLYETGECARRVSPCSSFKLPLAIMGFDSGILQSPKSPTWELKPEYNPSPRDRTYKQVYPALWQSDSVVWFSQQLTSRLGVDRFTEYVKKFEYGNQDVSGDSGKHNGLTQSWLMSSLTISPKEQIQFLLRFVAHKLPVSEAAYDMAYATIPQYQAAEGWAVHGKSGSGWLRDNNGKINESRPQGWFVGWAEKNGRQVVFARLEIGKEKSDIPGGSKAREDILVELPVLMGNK
Protocol: as §1, §2, §3, §4, §5, §6, §7

[6] = molecular target: TEM-1 (Class A) β-lactamase (Escherichia coli, UniProt P62593); experiment: In vitro enzymatic assay (Nitrocefin); assay type: biochemical; conditions: Nitrocefin 0.1 mM, 1 × PBS pH 7.4, 0.1 mg/mL BSA, read-out: IC50, inhibitory activity on β-lactamase
Chain of TEM-1 (Class A) β-lactamase (P62593 24-286 limits assumed): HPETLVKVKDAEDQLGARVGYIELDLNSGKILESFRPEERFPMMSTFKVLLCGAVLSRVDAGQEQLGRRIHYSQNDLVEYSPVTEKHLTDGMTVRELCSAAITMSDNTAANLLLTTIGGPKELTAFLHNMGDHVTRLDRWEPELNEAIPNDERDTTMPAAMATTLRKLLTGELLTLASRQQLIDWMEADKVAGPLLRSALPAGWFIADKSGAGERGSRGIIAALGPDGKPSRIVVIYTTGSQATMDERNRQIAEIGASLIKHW
Protocol: as §1, §2, §3, §4, §5, §6, §7

[7] = molecular target: KPC (Class A) β-lactamase (Klebsiella pneumoniae, UniProt Q9F663); experiment: In vitro enzymatic assay (Nitrocefin); assay type: biochemical
Chain of KPC (Class A) β-lactamase (Q9F663 25-293 limits assumed): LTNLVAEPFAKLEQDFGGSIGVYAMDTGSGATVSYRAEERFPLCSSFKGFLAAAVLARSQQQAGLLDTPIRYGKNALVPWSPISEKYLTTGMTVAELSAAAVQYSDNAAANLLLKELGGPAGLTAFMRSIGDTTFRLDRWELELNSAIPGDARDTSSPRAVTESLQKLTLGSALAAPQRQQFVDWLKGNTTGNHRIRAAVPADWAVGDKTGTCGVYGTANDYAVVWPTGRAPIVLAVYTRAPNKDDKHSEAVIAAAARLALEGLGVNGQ
Protocol: as §1, §2, §3, §4, §5, §6, §7

[8] = test system: K. pneumoniae ATCC BAA-1144 (AmpC); experiment: In vitro synergistic inhibitory concentration (SIC) assay; assay type: cell-based; conditions: Klebsiella pneumoniae, ATCCBAA1144, 37° C. 20 hours, read-out: minimum inhibitory concentration, used alone
Protocol: (§8) 2) 30 μL dimethyl sulfoxide was added to columns 2-12 of the 96-V well plate. 60 μL prepared ceftazidime was added to column 1. 30 μL ceftazidime was transferred from column 1 to column 2 and mixed with a pipette. The same operation was continued until column 11, and 30 μL of the mixture in column 11 was discarded. This was the compound mother plate.
(§9) Mix the liquid in the mother plate with a pipette.
(§10) 4) One day before the experiment, the bacterial glycerol stock which was stored in a −80° C. refrigerator was streaked on a trypticase soy agar plate (TSA), and the plate was incubated in a 37° C. incubator overnight. On the day of the experiment, the monoclonal bacterial was suspended in physiological saline and the turbidity of which was adjusted to 0.5 McFarland standard, corresponding to 1×10^8 CFU/ml. This suspension was diluted 100-fold to 1×10^6 CFU/mL with caton-adjusted Mueller-Hnton broth (CAMHB), which was used as an inoculation fluid.
(§11) 5) a 96-U plate was used as a test plate. Firstly, adding 98 μL CAMHB to each well of the test plate and transferring 2 μL solution in the mother plate to the test plate. 100 μL inoculation fluid was added to each well of the test plate.
(§12) 6) The test plate was incubated at 37° C. for 20 hours.
(§13) The above-mentioned method was also used to determine the antibacterial activity of the test compound or the antibiotic when used alone.

[9] = test system: K. pneumoniae ATCC BAA-2470 (NDM-1); experiment: as above; assay type: cell-based; conditions: Klebsiella pneumoniae, ATCCBAA2470, 37° C. 20 hours, read-out: minimum inhibitory concentration, used alone
Protocol: as §8, §9, §10, §11, §12, §13

[10] = test system: K. pneumoniae ATCC BAA-2472 (NDM-1); experiment: as above; assay type: cell-based; conditions: Klebsiella pneumoniae, ATCCBAA2472, 37° C. 20 hours, read-out: minimum inhibitory concentration, used alone
Protocol: as §8, §9, §10, §11, §12, §13

[11] = test system: E. cloacae ATCC BAA-1143 (AmpC); experiment: as above; assay type: cell-based; conditions: Enterobacter cloacae, ATCCBAA1143, 37° C. 20 hours, read-out: minimum inhibitory concentration, used alone
Protocol: as §8, §9, §10, §11, §12, §13

[12] = test system: Klebsiella pneumoniae (ATCC BAA-1705, KPC-2); experiment: Mouse lung infection model; assay type: in vivo, CD-1 mice; conditions: ip, combined with ceftazidime
Protocol: Female CD-1 mice of about 7 weeks old, weighing 26-28 g; cyclophosphamide was injected at a dose of 150 mg/kg 4 days before infection, and further 100 mg/kg 1 day before infection; the bacteria infected was Klebsiella pneumoniae (ATCC BAA-1705, KPC-2). Compound 1 and the reference compound OP-0595 were synthesized in the laboratory.
Female CD-1 mice were infected with Klebsiella pneumoniae by intranasal instillation. Each mouse was instilled with 50 μL bacterial fluid through nasal cavity at a dose of 3.14E+07 CFU per mouse. At 2 h, 4 h, 6 h and 8 h after infection, each group of mice were treated with a corresponding compound or combined compounds by intraperitoneal injection.
At 10 h after infection, the mice in group 1, 2 and 3 were euthanized, and the lung was taken out and placed in a 50 mL centrifuge tube containing 10 mL sterile normal saline, the tube was placed on wet ice and transferred to BSL-2 laboratory for CFU counting. At 20 h after infection, the mice in group 4, 5 and 6 were euthanized and treated according to the same procedure.
The lungs were ground with an IKA T10 homogenizer (the maximum speed was 20S, repeated once). […] After 24 hours, the plate was taken out and the number of single colonies grown in each homogenate with a gradient dilution, and the amount of bacterial load in the lung of each mouse was calculated.

Chain of AmpC-PA (Class C) β-lactamase (P24735 27-397): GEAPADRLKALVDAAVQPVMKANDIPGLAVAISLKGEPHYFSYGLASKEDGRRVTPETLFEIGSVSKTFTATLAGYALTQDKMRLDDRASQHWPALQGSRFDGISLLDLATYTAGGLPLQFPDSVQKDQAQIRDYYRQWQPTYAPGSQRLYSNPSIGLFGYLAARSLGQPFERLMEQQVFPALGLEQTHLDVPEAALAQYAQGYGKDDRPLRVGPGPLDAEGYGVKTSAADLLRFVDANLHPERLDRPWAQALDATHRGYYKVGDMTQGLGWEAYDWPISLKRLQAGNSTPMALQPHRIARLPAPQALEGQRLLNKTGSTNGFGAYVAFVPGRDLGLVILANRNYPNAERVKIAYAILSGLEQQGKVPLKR

Work on `N=C(N)NOCCONC(=O)[C@@H]1CC[C@@H]2CN1C(=O)N2OS(=O)(=O)O` [Compound 1] yielded an IC50 [1] of 98.6 nM, an IC50 [2] of 20.2 nM and an IC50 [3] of 1550 nM. The IC50 [4] was 31.9 nM, the IC50 [5] was 5000 nM and the IC50 [6] was 38.9 nM. The IC50 [7] was 43.1 nM, the MIC [8] was 128 µg/mL and the MIC [9] was > 128 µg/mL. The MIC [10] was > 128 µg/mL, the MIC [11] was 16 µg/mL and the “reduction of the amount of bacterial load in the lung compared with the reference group of OP-0595” value ([12]; female CD-1 mice, K. pneumoniae ATCC BAA-1705 (KPC-2), 25/6.25 mpk and 50/12.5 mpk) was 0.5-1.5 logs. The “potency compared with reference compound OP-0595” value ([12]; mouse lung infection model) was “significantly more potent”.
